Where a SMILES comes first, the peptide text is derived from it. [ ]: non-standard residue; d: D form.
Test: Displacement of [125I]-ET-1 from Endothelin A receptor of rabbit renal artery vascular smooth muscle cells

CC[C@H](C)[C@H](NC(=O)[C@H](CC(=O)O)NC(=O)[C@H](CCC(=O)O)NC(=O)[C@@H](Cc1ccccc1)NC(C)=O)C(=O)N[C@H](C(=O)N[C@@H](Cc1c[nH]c2ccccc12)C(=O)O)[C@@H](C)CC [(S)-4-((R)-2-Acetylamino-3-phenyl-propionylamino)-4-((S)-2-carboxy-1-{(S)-1-[(S)-(S)-1-((S)-1-carboxy-2-(S)-1H-indol-3-yl-ethylcarbamoyl)-2-methyl-butylcarbamoyl]-2-methyl-butylcarbamoyl}-ethylcarbamoyl)-butyric acid] (Ac-[dF]EDIIW-OH)
IC50: 650 nM

From BindingDB's records for doi:10.1016/S0960-894X(01)81215-4 (1993)
